Source: patent US8067424B2, “Selective inhibitors for cyclin-dependent kinases” (Emory University, priority 2007, dated 2011)
Read-outs that look alike come from different tables or passages of the source.

Assays:
Assay type in all cases: biochemical
[1] = molecular target: T1, PKC zeta (Homo sapiens, UniProt Q05513); assay: Kinase screen: PKC zeta assay
T1 sequence (Q05513 1-592): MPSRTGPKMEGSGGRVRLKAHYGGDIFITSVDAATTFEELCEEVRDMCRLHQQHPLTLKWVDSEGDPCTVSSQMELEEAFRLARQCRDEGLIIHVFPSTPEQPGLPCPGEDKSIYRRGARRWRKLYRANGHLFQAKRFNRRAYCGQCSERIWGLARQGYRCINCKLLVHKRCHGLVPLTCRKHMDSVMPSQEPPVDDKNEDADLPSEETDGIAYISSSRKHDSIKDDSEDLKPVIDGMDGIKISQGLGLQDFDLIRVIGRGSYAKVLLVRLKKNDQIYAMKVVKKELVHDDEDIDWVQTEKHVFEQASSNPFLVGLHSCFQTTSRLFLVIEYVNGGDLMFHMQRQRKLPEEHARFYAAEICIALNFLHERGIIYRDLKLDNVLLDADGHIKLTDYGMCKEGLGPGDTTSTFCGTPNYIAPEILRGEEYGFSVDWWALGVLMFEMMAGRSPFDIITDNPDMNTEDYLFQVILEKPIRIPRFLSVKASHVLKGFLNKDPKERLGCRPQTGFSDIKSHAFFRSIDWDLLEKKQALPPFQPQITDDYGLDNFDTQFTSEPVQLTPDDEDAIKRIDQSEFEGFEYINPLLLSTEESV
Procedure: (§1) Generally, the same procedure was used for all assays. Since the total assay volume was 25.5 microliters, 0.5 microliters of inhibitors at 51× assay concentration were added to the plates before any other addition.
(§2) The basic procedure was to add 0.5 microliters inhibitor/control in DMSO to plate. Fifteen microliters of enzyme/substrate/buffer mix were added and incubated for 5 min. Ten microliters MgATP at the relevant concentration were added and incubated for 30 min. The assay was stopped by adding 5 microliters of 3% orthophosphoric acid. The assay was transferred to a p81 filter plate and read in a scintillation counter of 30 sec/well. Note that this assay procedure was not followed for MKK1, which instead involved a two-step assay, and PKC alpha, which required the addition of lipid vesicles.
PKC zeta assay: PKC zeta (5-20 mU diluted in 50 mM Tris pH 7.5, 0.1 mM EGTA, 0.1% b-mercaptoethanol, 1 mg/ml BSA, 100 μM Vanadate) was assayed against a substrate peptide ([…]) (SEQ ID NO: 34) in a final volume of 25.5 μl containing 50 mM Tris pH 7.5, 0.05% b-mercaptoethanol, 10 μM Vanadate, 300 μM substrate peptide, 10 mM magnesium acetate and 0.005 mM [33P-g-ATP] (50-1000 cpm/pmole) and incubated for 30 min at room temperature. Assays were stopped by addition of 5 μl of 0.5 M (3%) orthophosphoric acid and then harvested onto P81 Unifilter plates with a wash buffer of 50 mM orthophosphoric acid.

[2] = molecular target: PIM2 (Homo sapiens, UniProt Q9P1W9); assay: Kinase screen: PIM2 assay
Procedure: as §1, §2
PIM2 assay: 5-20 mU of PIM2 (diluted in 50 mM Tris (pH 7.5), 0.1 mM EGTA, 1 mg/ml BSA, 0.1%, b-Mercaptoethanol) was assayed against substrate peptide ([…]) (SEQ ID NO: 23) in a final volume of 25.5 μl containing 50 mM Tris (pH 7.5), 0.1 mM EGTA, 0.5 mM CaCl2, 0.3 μM calmodulin, 0.1%, b-Mercaptoethanol, 300 μM substrate peptide, 10 mM magnesium acetate and 0.005 mM [33P-g-ATP] (500-1000 cpm/pmole) and incubated for 30 mins at room temperature. Assays were stopped by addition of 5 μl of 0.5M (3%) orthophosphoric acid. Assays were harvested onto P81 Unifilter plates using a wash buffer of 50 mM orthophosphoric acid.

[3] = molecular target: CDK4 (Homo sapiens, UniProt P11802); assay: CDK4 in vitro kinase inhibition (protocol similar to Example 14); settings: for remaining activity at 0.1 µM: 100 nM, mean of three (standard deviation), read-out: CDK4 % remaining kinase activity after incubation with 100 nM of compound; for IC50: Table 7, mean of three experiments
Procedure: Prepared test compounds, prepared at concentrations of 1000, 100, 10, 1 and 0.1 μM. Diluted 1 in 40 in ddH2O and added 1 μl of test compound or DMSO (controls). • 3. Incubated at 30° C. for 30 mins in a water bath. • 4. Added 10 µl of ATP […] per reaction to get a final concentration of 2 μM ATP. • 5. Made up to 25 μl total volume with ddH2O • 6. Incubated for 20 min at 30° C. in a water bath • 7. Used the PKLight Kinase assay (Cambrex, UK), add to each reaction 10 μl of stop reaction and mix thoroughly. Incubated at room temp for 10 min. • 8. Added 20 μ1 Luciferase reaction mixture (Cambrex, UK) per reaction, and further incubated at room temp for 10 mins and determined luciferase activities according to manufacturer's methods. Kinase reactions were added to 96 well microplates and luciferase activities determined using a Packard TopCount NXT™ luminescent counter (TopCount 9904). The luminometer was programmed to take a read time of 0.1 integrated reading and emission of light was detectable at 560 nm. • 9. All kinase inhibition assays were carried out in triplicate. As the bioluminescent signal is inversely proportional to kinase activity, all values were deducted from the no enzyme control. These values were then plotted utilizing the enzyme control as a reference to 100% activity and compared to all other values.
This example provides in vitro kinase inhibition data for various compounds within the scope of the invention versus CDK 2, CDK 4, CDK, 5, CDK 7 and CDK 9. The protocol was similar to that shown in Example 14 Inhibition of the protein kinases was performed in triplicate using each compound at 100 nM.
This example provides in vitro kinase inhibition data for various compounds within the scope of the invention versus CDK 2, CDK 4, CDK, 5, CDK 7 and CDK 9.

[4] = molecular target: ERK2 (Homo sapiens, UniProt P28482); assay: Kinase screen: MAPK2/ERK2 assay
Procedure: as §1, §2
MAPK2/ERK2 assay: MAPK/ERK2 (5-20 mU diluted in 50 mM Tris pH 7.5, 0.1 mM EGTA, 0.1 mM Na3VO4, 0.1% b-mercaptoethanol, 1 mg/ml BSA) was assayed against MBP in a final volume of 25.5 μl in 25 mM Tris pH 7.5, 0.1 mM EGTA, 0.33 mg/ml MBP, 10 mM magnesium acetate and 0.05 mM [33P-g-ATP] (500-1000 cpm/pmole) and incubated for 30 min at room temperature. Assays were stopped by addition of 5 μl of 0.5 M (3%) orthophosphoric acid and then harvested onto P81 Unifilter plates with a wash buffer of 50 mM orthophosphoric acid.

[5] = 10 micromolar compound, read-out: mean activity remaining (as a percentage of the original activity), PKC zeta
[6] = 10 micromolar compound, read-out: mean activity remaining (as a percentage of the original activity), PIM2
[7] = 10 micromolar compound, read-out: mean activity remaining (as a percentage of the original activity), ERK2

Sequence of CDK4 (P11802 whole entry): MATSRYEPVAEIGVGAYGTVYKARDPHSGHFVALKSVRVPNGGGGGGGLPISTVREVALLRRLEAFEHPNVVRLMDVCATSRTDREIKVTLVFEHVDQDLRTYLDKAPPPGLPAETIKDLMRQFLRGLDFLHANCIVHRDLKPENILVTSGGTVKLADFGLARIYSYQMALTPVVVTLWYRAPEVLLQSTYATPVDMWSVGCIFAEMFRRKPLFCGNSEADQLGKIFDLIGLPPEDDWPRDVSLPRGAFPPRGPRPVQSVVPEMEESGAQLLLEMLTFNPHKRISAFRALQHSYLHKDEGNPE
Sequence of CDK4 (P24385 whole entry partner): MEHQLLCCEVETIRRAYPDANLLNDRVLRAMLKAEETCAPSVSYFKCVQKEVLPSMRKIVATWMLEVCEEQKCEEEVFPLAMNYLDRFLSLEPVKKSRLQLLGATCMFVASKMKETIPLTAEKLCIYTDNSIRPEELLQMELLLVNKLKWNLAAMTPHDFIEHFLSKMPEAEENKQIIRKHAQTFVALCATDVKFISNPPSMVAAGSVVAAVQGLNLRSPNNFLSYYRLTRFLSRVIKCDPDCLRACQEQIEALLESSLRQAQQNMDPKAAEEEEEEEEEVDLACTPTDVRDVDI
Sequence of ERK2 (P28482 whole entry, species assumed): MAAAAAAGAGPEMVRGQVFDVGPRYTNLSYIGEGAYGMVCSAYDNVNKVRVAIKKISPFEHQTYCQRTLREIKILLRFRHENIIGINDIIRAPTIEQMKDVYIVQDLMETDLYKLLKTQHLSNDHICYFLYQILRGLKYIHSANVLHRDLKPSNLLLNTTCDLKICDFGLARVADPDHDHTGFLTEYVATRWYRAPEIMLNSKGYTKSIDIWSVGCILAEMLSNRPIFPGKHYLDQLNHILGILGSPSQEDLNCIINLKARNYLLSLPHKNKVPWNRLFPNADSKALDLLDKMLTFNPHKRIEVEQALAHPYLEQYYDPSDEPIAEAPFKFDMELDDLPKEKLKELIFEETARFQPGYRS
Sequence of PIM2 (Q9P1W9 whole entry, species assumed): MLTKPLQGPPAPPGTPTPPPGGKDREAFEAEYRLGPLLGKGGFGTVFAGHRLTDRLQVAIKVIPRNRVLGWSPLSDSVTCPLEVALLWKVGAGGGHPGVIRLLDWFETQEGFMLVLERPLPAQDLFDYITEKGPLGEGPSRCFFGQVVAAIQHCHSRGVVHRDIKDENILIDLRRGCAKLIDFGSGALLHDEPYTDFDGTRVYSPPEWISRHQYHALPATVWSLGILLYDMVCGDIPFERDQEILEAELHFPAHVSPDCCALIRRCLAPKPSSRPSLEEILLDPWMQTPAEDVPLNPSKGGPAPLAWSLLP

Row | SMILES | remaining activity at 10 µM [1, 5] [%] | remaining activity at 10 µM [2, 6] [%] | remaining activity at 0.1 µM [3] [%] | IC50 [3] [nM] | remaining activity at 10 µM [4, 7] [%] | mean activity remaining (as a percentage of the original activity), PKC zeta ([1]; 10 micromolar compound) [%] | mean activity remaining (as a percentage of the original activity), PIM2 ([2]; 10 micromolar compound) [%] | mean activity remaining (as a percentage of the original activity), ERK2 ([4]; 10 micromolar compound) [%] | remaining activity at 10 µM ([1]; PKC zeta, 10 μM, read-out: Mean Remaining Enzyme Activity (%)) [%] | remaining activity at 10 µM ([2]; PIM2, 10 μM, read-out: Mean Remaining Enzyme Activity (%)) [%] | remaining activity at 10 µM ([4]; ERK2, 10 μM, read-out: Mean Remaining Enzyme Activity (%)) [%]
1 | CC[C@H](CO)Nc1cc(NCc2ccccc2)n2ncc(C(C)C)c2n1 [ICEC0067] | 76 | 92 | 88 | > 1000 | 59 | – | – | – | – | – | –
2 | CC(C)c1cnn2c(NCc3ccccc3F)cc(NCCCCCN)nc12 [ICEC-0232] | – | – | – | – | – | 65 | 102 | 70 | – | – | –
3 | CC(C)c1cnn2c(NCc3ccccc3)cc(NCCCCCCCN)nc12 [BS-181] | – | – | – | – | – | – | – | – | 114 | 102 | 86
4 | CC(C)c1cnn2c(NCc3ccccc3)cc(N[C@@H](CO)[C@H](O)CO)nc12 [ICEC0318, (3S)-3-(7-(Benzylamino)-3-isopropylpyrazolo[1,5-a]pyrimidin-5-ylamino)butane-1,2,4-triol] | 64 | 94 | 88 | > 1000 | 26 | – | – | – | – | – | –
5 | C=C[C@H](CO)Nc1cc(NCc2ccccc2)n2ncc(C(C)C)c2n1 [ICEC0065] | 84 | 93 | 77 | > 1000 | 59 | – | – | – | – | – | –
